According to US20240368118A1, “CEREBLON BINDING COMPOUNDS, COMPOSITIONS THEREOF, AND METHODS OF TREATMENT THEREWITH” (CELGENE CORPORATION, priority 2021, published 2024):
Structures can show the parent of a compound that is named as a salt.

Target: T1, AR (Homo sapiens, UniProt P10275)
T1 construct: endogenous in cells; host or cells: VCaP cells
T1 sequence (P10275 1-920): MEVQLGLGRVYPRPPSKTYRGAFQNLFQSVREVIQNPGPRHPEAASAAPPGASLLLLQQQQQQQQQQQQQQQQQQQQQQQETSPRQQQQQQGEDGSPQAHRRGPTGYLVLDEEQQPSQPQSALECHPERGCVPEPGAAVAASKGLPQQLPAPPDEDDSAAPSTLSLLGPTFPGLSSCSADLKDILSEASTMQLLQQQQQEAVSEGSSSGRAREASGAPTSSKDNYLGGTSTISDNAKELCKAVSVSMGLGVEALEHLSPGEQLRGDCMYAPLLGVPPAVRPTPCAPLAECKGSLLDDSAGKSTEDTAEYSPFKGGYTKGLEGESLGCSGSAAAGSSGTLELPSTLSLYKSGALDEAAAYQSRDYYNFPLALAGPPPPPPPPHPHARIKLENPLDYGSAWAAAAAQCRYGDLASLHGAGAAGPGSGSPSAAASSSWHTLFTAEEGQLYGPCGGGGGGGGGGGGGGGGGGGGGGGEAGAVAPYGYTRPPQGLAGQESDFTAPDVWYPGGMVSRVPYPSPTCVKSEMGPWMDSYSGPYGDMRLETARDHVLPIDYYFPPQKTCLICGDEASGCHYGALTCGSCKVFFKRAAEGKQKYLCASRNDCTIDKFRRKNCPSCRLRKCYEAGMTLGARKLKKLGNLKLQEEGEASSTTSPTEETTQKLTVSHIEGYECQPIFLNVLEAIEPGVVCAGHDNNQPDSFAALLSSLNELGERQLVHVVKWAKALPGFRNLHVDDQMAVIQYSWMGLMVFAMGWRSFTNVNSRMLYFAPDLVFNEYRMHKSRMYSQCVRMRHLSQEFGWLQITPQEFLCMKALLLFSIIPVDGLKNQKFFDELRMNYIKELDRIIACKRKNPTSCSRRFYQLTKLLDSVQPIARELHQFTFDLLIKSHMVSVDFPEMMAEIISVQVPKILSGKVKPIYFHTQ
Experiment: VCAP AR Degradation Assay
Format: cell-based
Conditions: VCaP cells, 24 h; for DC50: AR ELISA, concentration when AR level = 50% of DMSO control; for Ymin: lowest AR level normalized to DMSO control, class symbols
Method: VCAP AR Degradation Assay. Test compounds were pre-dispensed into a Corning CellBind 96-well clear bottom plate (Cat #3300) using an acoustic dispenser to make a 10-point concentration series at 1:3 dilution for each compound. The final top concentration of each compound was 5 μM. DMSO at a final concentration of 0.1% was used as a control. VCaP cells cultured in DMEM with 8% fetal bovine serum (FBS) were seeded at 50K cells per well in a 200 μL volume into the compound plate and incubated at 37° C. in a C02 incubator for 24 h. The medium was carefully removed from the cells and the plate was placed on ice. One hundred μL of ice-cold 1× cell lysis buffer from Cell Signaling Technologies (Cat #9803) was added to each well of the cells and the plate was incubated at 4° C. on a shaker for 1 h. Fifteen μL of cell lysate was used for AR ELISA detection using a PathScan Total Sandwich AR ELISA kit (Cell Signaling Technology, Cat #12580). AR levels in compound-treated wells were normalized to that of DMSO control and expressed as percent of control (PoC) (y). A Four Parameter Logistic Model (Sigmoidal Dose-Response Model) was used to determine the compound's DC50, and EC50, using the following equation: […]
The lowest measured AR level normalized to DMSO control in response to compound treatment, termed Y value, was used to characterize the compound-mediated AR degradation efficiency.

SMILES | DC50 [nM] | Ymin
C[C@@H]1CN(CCO[C@H]2CC[C@H](N3C(=S)N(c4cnc(C#N)c(C(F)(F)F)c4)C(=O)C3(C)C)CC2)C[C@H](C)N1CC(=O)Nc1ccc(C2CCC(=O)NC2=O)cc1 (stereo partly drawn) [Cmpd 6, 2-((2R,6S)-4-(2-((trans-4-(3-(6-Cyano-5-(trifluoromethyl)pyridin-3-yl)-5,5-dimethyl-4-oxo-2-thioxoimidazolidin-1-yl)cyclohexyl)oxy)ethyl)-2,6-dimethylpiperazin-1-yl)-N-(4-(2,6-dioxopiperidin-3-yl)phenyl)acetamide hydrochloride] | ≤ 5 | *** (30%<Y<80%)
CC[C@]1(c2ccc(NC(=O)CN3[C@H](C)CN(CCO[C@H]4CC[C@H](N5C(=S)N(c6ccc(C#N)c(C(F)(F)F)c6)C(=O)C5(C)C)CC4)C[C@@H]3C)cc2)CCC(=O)NC1=O [Cmpd 7, 2-((2S,6R)-4-(2-((trans-4-(3-(4-Cyano-3-(trifluoromethyl)phenyl)-5,5-dimethyl-4-oxo-2-thioxoimidazolidin-1-yl)cyclohexyl)oxy)ethyl)-2,6-dimethylpiperazin-1-yl)-N-(4-((R)-3-ethyl-2,6-dioxopiperidin-3-yl)phenyl)acetamide hydrochloride] | 100 to 10000 | *** (30%<Y<80%)
CC[C@@]1(c2ccc(NC(=O)CN3[C@H](C)CN(CCO[C@H]4CC[C@H](N5C(=S)N(c6ccc(C#N)c(C(F)(F)F)c6)C(=O)C5(C)C)CC4)C[C@@H]3C)cc2)CCC(=O)NC1=O [Cmpd 8, 2-((2S,6R)-4-(2-((trans-4-(3-(4-Cyano-3-(trifluoromethyl)phenyl)-5,5-dimethyl-4-oxo-2-thioxoimidazolidin-1-yl)cyclohexyl)oxy)ethyl)-2,6-dimethylpiperazin-1-yl)-N-(4-((S)-3-ethyl-2,6-dioxopiperidin-3-yl)phenyl)acetamide hydrochloride] | 100 to 10000 | *** (30%<Y<80%)
C[C@@H]1CN(CCO[C@H]2CC[C@H](N3C(=S)N(c4cnc(C#N)c(Cl)c4)C(=O)C3(C)C)CC2)C[C@H](C)N1CC(=O)Nc1ccc(C2CCC(=O)NC2=O)cc1 (stereo partly drawn) [Cmpd 11, 2-((2R,6S)-4-(2-((trans-4-(3-(5-Chloro-6-cyanopyridin-3-yl)-5,5-dimethyl-4-oxo-2-thioxoimidazolidin-1-yl)cyclohexyl)oxy)ethyl)-2,6-dimethylpiperazin-1-yl)-N-(4-(2,6-dioxopiperidin-3-yl)phenyl)acetamide hydrochloride] | ≤ 5 | ** (20%<Y≤30%)
C[C@@H]1CN(CCCO[C@H]2CC[C@H](N3C(=S)N(c4ccc(C#N)c(C(F)(F)F)c4)C(=O)C3(C)C)CC2)C[C@H](C)N1CC(=O)Nc1ccc(C2CCC(=O)NC2=O)cc1 (stereo partly drawn) [Cmpd 12, 2-((2R,6S)-4-(3-((trans-4-(3-(4-Cyano-3-(trifluoromethyl)phenyl)-5,5-dimethyl-4-oxo-2-thioxoimidazolidin-1-yl)cyclohexyl)oxy)propyl)-2,6-dimethylpiperazin-1-yl)-N-(4-(2,6-dioxopiperidin-3-yl)phenyl)acetamide hydrochloride] | ≤ 5 | ** (20%<Y≤30%)
C[C@@H]1CN(CCCO[C@H]2CC[C@H](N3C(=S)N(c4cnc(C#N)c(C(F)(F)F)c4)C(=O)C3(C)C)CC2)C[C@H](C)N1CC(=O)Nc1ccc(C2CCC(=O)NC2=O)cc1 (stereo partly drawn) [Cmpd 13, 2-((2R,6S)-4-(3-((trans-4-(3-(6-Cyano-5-(trifluoromethyl)pyridin-3-yl)-5,5-dimethyl-4-oxo-2-thioxoimidazolidin-1-yl)cyclohexyl)oxy)propyl)-2,6-dimethylpiperazin-1-yl)-N-(4-(2,6-dioxopiperidin-3-yl)phenyl)acetamide hydrochloride] | ≤ 5 | ** (20%<Y≤30%)
C[C@@H]1CN(CCCO[C@H]2CC[C@H](N3C(=S)N(c4ccc(C#N)c(Cl)c4)C(=O)C3(C)C)CC2)C[C@H](C)N1CC(=O)Nc1ccc(C2CCC(=O)NC2=O)cc1 (stereo partly drawn) [Cmpd 14, 2-((2R,6S)-4-(3-((trans-4-(3-(3-Chloro-4-cyanophenyl)-5,5-dimethyl-4-oxo-2-thioxoimidazolidin-1-yl)cyclohexyl)oxy)propyl)-2,6-dimethylpiperazin-1-yl)-N-(4-(2,6-dioxopiperidin-3-yl)phenyl)acetamide hydrochloride] | ≤ 5 | * (0<Y≤20%)
C[C@@H]1CN(CCC[C@H]2CC[C@H](N3C(=S)N(c4cnc(C#N)c(C(F)(F)F)c4)C(=O)C3(C)C)CC2)C[C@H](C)N1CC(=O)Nc1ccc(C2CCC(=O)NC2=O)cc1 (stereo partly drawn) [Cmpd 15, 2-((2R,6S)-4-(3-(trans-4-(3-(6-Cyano-5-(trifluoromethyl)pyridin-3-yl)-5,5-dimethyl-4-oxo-2-thioxoimidazolidin-1-yl)cyclohexyl)propyl)-2,6-dimethylpiperazin-1-yl)-N-(4-(2,6-dioxopiperidin-3-yl)phenyl)acetamide hydrochloride] | ≤ 5 | ** (20%<Y≤30%)
C[C@@H]1CN(CCC[C@H]2CC[C@H](N3C(=S)N(c4cnc(C#N)c(Cl)c4)C(=O)C3(C)C)CC2)C[C@H](C)N1CC(=O)Nc1ccc(C2CCC(=O)NC2=O)cc1 (stereo partly drawn) [Cmpd 16, 2-((2R,6S)-4-(3-(trans-4-(3-(5-Chloro-6-cyanopyridin-3-yl)-5,5-dimethyl-4-oxo-2-thioxoimidazolidin-1-yl)cyclohexyl)propyl)-2,6-dimethylpiperazin-1-yl)-N-(4-(2,6-dioxopiperidin-3-yl)phenyl)acetamide hydrochloride] | 5 to 15 | *** (30%<Y<80%)
C[C@@H]1CN(CCC[C@H]2CC[C@H](N3C(=S)N(c4ccc(C#N)c(Cl)c4)C(=O)C3(C)C)CC2)C[C@H](C)N1CC(=O)Nc1ccc(C2CCC(=O)NC2=O)cc1 (stereo partly drawn) [Cmpd 17, 2-((2S,6R)-4-(3-(trans-4-(3-(3-Chloro-4-cyanophenyl)-5,5-dimethyl-4-oxo-2-thioxoimidazolidin-1-yl)cyclohexyl)propyl)-2,6-dimethylpiperazin-1-yl)-N-(4-(2,6-dioxopiperidin-3-yl)phenyl)acetamide hydrochloride] | 5 to 15 | *** (30%<Y<80%)
C[C@@H]1CN(CCCO[C@H]2CC[C@H](N3C(=S)N(c4ccc(C#N)c(C(F)(F)F)c4)C(=O)C3(C)C)CC2)C[C@H](C)N1CC(=O)Nc1cccc(N2CCC(=O)NC2=O)c1 [Cmpd 19, 2-((2R,6S)-4-(3-((trans-4-(3-(4-Cyano-3-(trifluoromethyl)phenyl)-5,5-dimethyl-4-oxo-2-thioxoimidazolidin-1-yl)cyclohexyl)oxy)propyl)-2,6-dimethylpiperazin-1-yl)-N-(3-(2,4-dioxotetrahydropyrimidin-1(2H)-yl)phenyl)acetamide hydrochloride] | ≤ 5 | ** (20%<Y≤30%)
C[C@@H]1CN(CCCO[C@H]2CC[C@H](N3C(=S)N(c4ccc(C#N)c(C(F)(F)F)c4)C(=O)C3(C)C)CC2)C[C@H](C)N1CC(=O)Nc1cccc(C2CCC(=O)NC2=O)c1 (stereo partly drawn) [Cmpd 20, 2-((2R,6S)-4-(3-((trans-4-(3-(4-Cyano-3-(trifluoromethyl)phenyl)-5,5-dimethyl-4-oxo-2-thioxoimidazolidin-1-yl)cyclohexyl)oxy)propyl)-2,6-dimethylpiperazin-1-yl)-N-(3-(2,6-dioxopiperidin-3-yl)phenyl)acetamide hydrochloride] | ≤ 5 | ** (20%<Y≤30%)
C[C@@H]1C[C@@H](CCO[C@H]2CC[C@H](N3C(=S)N(c4ccc(C#N)c(C(F)(F)F)c4)C(=O)C3(C)C)CC2)C[C@H](C)N1CC(=O)Nc1ccc(C2CCC(=O)NC2=O)cc1 (stereo partly drawn) [Cmpd 21, 2-((2R,4s,6S)-4-(2-((trans-4-(3-(4-Cyano-3-(trifluoromethyl)phenyl)-5,5-dimethyl-4-oxo-2-thioxoimidazolidin-1-yl)cyclohexyl)oxy)ethyl)-2,6-dimethylpiperidin-1-yl)-N-(4-(2,6-dioxopiperidin-3-yl)phenyl)acetamide hydrochloride] | ≤ 5 | * (0<Y≤20%)
